{"source": "patent US20130121930A1", "about": "“Use of Glyceryl Trinitrate for Treating Hematomas” (priority 2010, published 2013)", "test_system": "hematomas", "assay": "Topically applied GTN on hematomas, general finding compared to untreated hematoma", "assay_type": "in vivo", "description": "Instead of darkening of the skin, the healing occurs with a green, followed by a yellow, coloration of the affected skin area.", "key": {"[1]": {"conditions": "1.2 to 6 mg GTN on the day of injury, then daily 0.8 to 1.6 mg GTN, compared to an untreated hematoma"}}, "data": [{"smiles": "O=[N+]([O-])OCC(CO[N+](=O)[O-])O[N+](=O)[O-]", "note": "[GTN, glyceryl trinitrate]", "values": [{"measurement": "typical darkening of the affected skin sites", "setting": "1.2 to 6 mg GTN on the day of injury, then daily 0.8 to 1.6 mg GTN", "value": "prevents the typical darkening"}, {"measurement": "individual healing phases", "setting": "[1]", "value": "significantly shortened"}, {"measurement": "overall healing period for the treated hematomas", "setting": "[1]", "value": "reduced by one-half"}, {"measurement": "healing of hematomas", "setting": "topically applied", "value": "greatly accelerates"}]}]}
